Starred links: 1 amine or outer side, 2 acyl side, 3 side chain; linkers in the order of their positions; H or OH if unused. Non-standard residues stand in square brackets, D forms with d. Residues, ends and D or L forms follow the SMILES beside them. *: point of attachment. dPro(4R-(4-pyridylmethyl)) = O=C(O)[C@H]1C[C@@H](Cc2ccncc2)CN1; Trp(βS-Me,4-F) = C[C@@H](c1c[nH]c2cccc(F)c12)[C@H](N)C(=O)O; Bip(4'-COOH) = N[C@@H](Cc1ccc(-c2ccc(C(=O)O)cc2)cc1)C(=O)O; Ala(1-bicyclo(1.1.1)pentyl) = N[C@@H](CC12CC(C1)C2)C(=O)O; dPro(4R-Bzl(4-F)) = O=C(O)[C@H]1C[C@@H](Cc2ccc(F)cc2)CN1; dPro(3S-(4-F-Bn)) = O=C(O)[C@@H]1NCC[C@@H]1Cc1ccc(F)cc1; X27 = COc1ncc(-c2ccc(C[C@H](N[*:1])C(=O)[*:2])cc2)cn1; Trp(4-Cl) = N[C@@H](Cc1c[nH]c2cccc(Cl)c12)C(=O)O; X4 = O=C([C@H]1[C@@H](Cc2ccncc2)CCN1[*:1])[*:2]; Ala(pyrimidin-5-yl) = N[C@@H](Cc1cncnc1)C(=O)O; Phe(4-COOH) = N[C@@H](Cc1ccc(C(=O)O)cc1)C(=O)O; Ala(2-pyrazinyl) = N[C@@H](Cc1cnccn1)C(=O)O; Pro(cis-4-F) = O=C(O)[C@@H]1C[C@H](F)CN1; dPhe(4-F) = N[C@H](Cc1ccc(F)cc1)C(=O)O; d(αMeD) = C[C@@](N)(CC(=O)O)C(=O)O; 4Pal = N[C@@H](Cc1ccncc1)C(=O)O; Dab = NCC[C@H](N)C(=O)O; Dap = NC[C@H](N)C(=O)O; Aib = CC(C)(N)C(=O)O; Bn = c1ccc(C*)cc1
molecular target: T1, IL-1β (Homo sapiens, UniProt P01584); assay: IL-6 assay in MRC5 cells: inhibition of IL-1β induced IL-6 secretion (AlphaLISA); type: cell-based; details: inhibition of IL-1β induced IL-6 secretion in MRC5 cells; compound pre-incubated 1 hour with recombinant human IL-1β; read-out: MRC5 IC50
T1 construct: purchased BioLegend 579404
Summary of the method: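 Compound was pre-incubated 1 h at ambient temperature with recombinant human IL-1β at 2λ EC80 before adding human lung fibroblast MRC5 cells (3000/well) in EMEM with 0.025% BSA. After overnight culture at 37 °C, 5% CO2, secreted IL-6 in conditioned medium was measured by AlphaLISA; IC50 from 4-parameter logistic fits.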

T1 sequence (P01584 117-269): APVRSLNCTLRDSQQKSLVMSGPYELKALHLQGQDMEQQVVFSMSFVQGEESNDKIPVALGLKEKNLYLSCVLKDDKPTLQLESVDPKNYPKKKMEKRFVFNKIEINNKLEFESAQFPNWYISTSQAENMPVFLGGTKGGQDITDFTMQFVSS

IC50 [nM]	Structure (SMILES)
0.021	C[C@@H](c1c[nH]c2cccc(F)c12)[C@@H]1NC(=O)[C@@H]2C[C@H](F)CN2C(=O)CNC(=O)[C@H](Cc2ccc(C(=O)O)cc2)NC(=O)[C@H](Cc2ccncc2)NC(=O)[C@H](Cc2ccc(-c3ccc(C(=O)O)cc3)cc2)NC(=O)[C@H]2[C@@H](Cc3ccncc3)CCN2C(=O)CNC(=O)[C@H](CCN)NC(=O)[C@H](CCC(N)=O)NC(=O)[C@@H](Cc2ccc(F)cc2)NC(=O)[C@@](C)(CC(=O)O)NC(=O)[C@H](Cc2c[nH]c3ccccc23)NC(=O)[C@H](CO)NC(=O)C(C)(C)NC1=O [Example 236] (cyclo([Bip(4'-COOH)][4Pal][Phe(4-COOH)]G[Pro(cis-4-F)][Trp(βS-Me,4-F)][Aib]SW[d(αMeD)][dPhe(4-F)]Q[Dab]G[X4]))
0.012	COc1ncc(-c2ccc(C[C@@H]3NC(=O)[C@H]4[C@@H](Cc5ccc(F)cc5)CCN4C(=O)CNC(=O)[C@H](CCN)NC(=O)[C@H](CCC(N)=O)NC(=O)[C@H](Cc4cncnc4)NC(=O)[C@@](C)(CC(=O)O)NC(=O)[C@H](Cc4c[nH]c5ccccc45)NC(=O)[C@H](CO)NC(=O)C(C)(C)NC(=O)[C@H]([C@@H](C)c4c[nH]c5cccc(F)c45)NC(=O)[C@@H]4C[C@H](F)CN4C(=O)CNC(=O)[C@H](Cc4ccc(C(=O)O)cc4)NC(=O)[C@H](Cc4ccncc4)NC3=O)cc2)cn1 [Example 281] (cyclo([X27][4Pal][Phe(4-COOH)]G[Pro(cis-4-F)][Trp(βS-Me,4-F)][Aib]SW[d(αMeD)][Ala(pyrimidin-5-yl)]Q[Dab]G[dPro(3S-(4-F-Bn))]))
0.023	C[C@@H](OCc1ccccc1)[C@@H]1NC(=O)[C@@](C)(CC(=O)O)NC(=O)[C@H](Cc2c[nH]c3ccccc23)NC(=O)[C@H](CO)NC(=O)C(C)(C)NC(=O)[C@H]([C@@H](C)c2c[nH]c3cccc(F)c23)NC(=O)[C@@H]2C[C@H](F)CN2C(=O)CNC(=O)[C@H](Cc2ccc(C(=O)O)cc2)NC(=O)[C@H](Cc2ccncc2)NC(=O)[C@H](Cc2ccc(-c3ccc(C(=O)O)cc3)cc2)NC(=O)[C@H]2[C@@H](Cc3ccncc3)CCN2C(=O)CNC(=O)[C@H](CCN)NC(=O)[C@H](CCC(N)=O)NC1=O [Example 229] (cyclo([Bip(4'-COOH)][4Pal][Phe(4-COOH)]G[Pro(cis-4-F)][Trp(βS-Me,4-F)][Aib]SW[d(αMeD)]T(Bn)Q[Dab]G[X4]))

same assay, conditions: inhibition of IL-1β induced IL-6 secretion in MRC5 cells; read-out: MRC5 IC50

IC50 [nM]	Structure (SMILES)
0.027	C[C@@H](c1c[nH]c2cccc(F)c12)[C@@H]1NC(=O)[C@@H]2C[C@H](F)CN2C(=O)CNC(=O)[C@H](Cc2ccc(C(=O)O)cc2)NC(=O)[C@H](CC23CC(C2)C3)NC(=O)[C@H](Cc2ccc(-c3ccc(C(=O)O)cc3)cc2)NC(=O)[C@H]2C[C@@H](Cc3ccncc3)CN2C(=O)CNC(=O)[C@H](CN)NC(=O)[C@H](CCC(N)=O)NC(=O)[C@H](Cc2ccncc2)NC(=O)C(C)(C)NC(=O)[C@H](Cc2c[nH]c3ccccc23)NC(=O)[C@H](CCC(=O)O)NC(=O)C(C)(C)NC1=O [Example 48] (cyclo([4Pal]Q[Dap]G[dPro(4R-(4-pyridylmethyl))][Bip(4'-COOH)][Ala(1-bicyclo(1.1.1)pentyl)][Phe(4-COOH)]G[Pro(cis-4-F)][Trp(βS-Me,4-F)][Aib]EW[Aib]))
0.019	C[C@@H](c1c[nH]c2cccc(F)c12)[C@@H]1NC(=O)[C@@H]2C[C@H](F)CN2C(=O)CNC(=O)[C@H](Cc2ccc(C(=O)O)cc2)NC(=O)[C@H](Cc2ccncc2)NC(=O)[C@H](Cc2ccc(-c3ccc(C(=O)O)cc3)cc2)NC(=O)[C@H]2[C@@H](Cc3ccncc3)CCN2C(=O)CNC(=O)[C@H](CCN)NC(=O)[C@H](CCC(N)=O)NC(=O)[C@H](Cc2cncnc2)NC(=O)[C@@](C)(CC(=O)O)NC(=O)[C@H](Cc2c[nH]c3cccc(Cl)c23)NC(=O)[C@H](CO)NC(=O)C(C)(C)NC1=O [Example 225] (cyclo([Bip(4'-COOH)][4Pal][Phe(4-COOH)]G[Pro(cis-4-F)][Trp(βS-Me,4-F)][Aib]S[Trp(4-Cl)][d(αMeD)][Ala(pyrimidin-5-yl)]Q[Dab]G[X4]))
0.021	C[C@@H](c1c[nH]c2cccc(F)c12)[C@@H]1NC(=O)[C@@H]2C[C@H](F)CN2C(=O)CNC(=O)[C@H](Cc2ccc(C(=O)O)cc2)NC(=O)[C@H](Cc2ccncc2)NC(=O)[C@H](Cc2ccc(-c3ccc(C(=O)O)cc3)cc2)NC(=O)[C@H]2C[C@@H](Cc3ccc(F)cc3)CN2C(=O)CNC(=O)[C@H](CCN)NC(=O)[C@H](CCC(N)=O)NC(=O)[C@H](Cc2cnccn2)NC(=O)C(C)(C)NC(=O)[C@H](Cc2c[nH]c3ccccc23)NC(=O)[C@H](CCC(=O)O)NC(=O)C(C)(C)NC1=O [Example 101] (cyclo([4Pal][Phe(4-COOH)]G[Pro(cis-4-F)][Trp(βS-Me,4-F)][Aib]EW[Aib][Ala(2-pyrazinyl)]Q[Dab]G[dPro(4R-Bzl(4-F))][Bip(4'-COOH)]))

Reference: patent publication US20260242419A1, “A CYCLIC PEPTIDE FOR TRAPPING INTERLEUKIN-1 BETA” (Merck Sharp & Dohme LLC, priority 2023, published 2026)
